Measurements taken from paper PMC9127068 (ChemMedChem, 2022).

Biological target: T1, 5-HT1A receptor (5-HT1AR) (Homo sapiens, UniProt P08908)
T1 sequence (P08908 1-422): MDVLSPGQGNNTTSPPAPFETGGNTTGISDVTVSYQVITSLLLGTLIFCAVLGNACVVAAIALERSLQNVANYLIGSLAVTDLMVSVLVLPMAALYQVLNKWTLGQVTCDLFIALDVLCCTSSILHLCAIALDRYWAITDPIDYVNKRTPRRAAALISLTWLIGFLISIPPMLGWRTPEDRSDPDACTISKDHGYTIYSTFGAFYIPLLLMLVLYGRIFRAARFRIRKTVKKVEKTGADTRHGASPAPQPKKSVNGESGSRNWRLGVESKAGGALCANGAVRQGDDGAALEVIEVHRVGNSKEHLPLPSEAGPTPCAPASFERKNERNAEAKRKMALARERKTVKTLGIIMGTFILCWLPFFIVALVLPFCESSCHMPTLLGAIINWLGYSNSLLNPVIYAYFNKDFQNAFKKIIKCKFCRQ
Experiment: radioligand displacement of [3H]-8-OH-DPAT
Type: binding

Ki | SMILES
10 nM | CCCN(CCCCCCNc1ccc([N+](=O)[O-])c2nonc12)C1CCc2cccc(O)c2C1 (centres unmarked) [5b]
1.8 nM | CCCN(CCCCCCNS(=O)(=O)c1cccc2c(N(C)C)cccc12)C1CCc2cccc(O)c2C1 (centres unmarked) [5a]
